Format in all cases: cell-based
For experiment [1], the system named is Mouse melanocytes (Melan-a). As to the kind of experiment: Melanin content analysis in IBMX-treated melanocytes. The following applies: 72 hours, FIG. 2. As to the method: (§1) Mouse melanocytes (Melan-a) were inoculated into a 24-well plate at 1×10^5 cells/mL and cultured overnight. Thereafter, the medium was replaced with a new medium containing 100 μM IBMX (melanogenesis promoter) and 10 μg/mL and 100 μg/mL of the Nypa fruticans extract of the present disclosure, and reacted for 72 hours, and the existing medium was washed. Thereafter, the cells were washed twice with PBS and dissolved in 1 N NaOH.
The melanin content was analyzed at 405 nm with a spectrophotometer, and arbutin was used as a positive control group.

In experiment [2] the test system is melanogenesis-related genes (TYR, TYRP-1, TYRP-2, MITF, MC1R) in mouse melanocytes (Melan-a). As to the kind of experiment: Melanogenesis inhibitory effect (RT-PCR), melanogenesis-related mRNA expression. The following applies: IBMX treatment alone, FIG. 3. The procedure:
as §1
In melanogenesis, tyrosinase (TYR), tyrosinase-related protein-1 (TYRP-1) and tyrosinase-related protein-2 (TYRP-2) were key factors. […] In the experiment, phosphorylated CREB was evaluated as a transcription factor and melanogenesis-related genes such as tyrosinase, TYRP-1, TYRP-2, MITF, and MC1R in mouse melanocytes (Melan-a) to confirm a melanogenesis inhibitory effect.
Total RNA (2 μg) was extracted from the mouse melanocytes (Melan-a) using TRIzol (Invitrogen Co., Carlsbad, CA, USA). […] Quantification of bands was calculated using Image Lab™ software version 5.2.1 (Bio-Rad Laboratories, CA, USA).

For experiment [3], the system named is melanogenesis-related proteins (TYR, TYRP-2, MITF) in mouse melanocytes (Melan-a). As to the kind of experiment: Melanogenesis inhibitory effect (Western blot), melanogenesis-related protein expression. The following applies: IBMX treatment alone, FIG. 4. As to the method:
as §1
Mouse melanocytes (Melan-a) were lysed with a RIPA buffer (ELPIS Biotech. Inc., Korea) containing protease inhibitor cocktail I (P8340; Sigma-Aldrich Korea) and phosphatase inhibitor cocktail II (P5726; Sigma-Aldrich Korea) and the extracted proteins were quantified using a Bradford protein method. Each protein was separated by 10% SDS-PAGE, and then transferred to a nitrocellulose (NC) membrane (0.45 μm; 1620115; Bio-Rad, Munich, Germany) and blocked with 5% skim milk or BSA in TBST for 1 hour. The membrane was cultured overnight with primary antibodies at 4° C. The membrane was washed four times at 15-minute intervals, and then reacted with anti-mouse or rabbit IgG-HRP as a secondary antibody. The proteins were detected using the ECL Solution System (ChemiDoc™ XRS+; Bio-Rad), and protein bands were quantified using Image Lab™ software (Bio-Rad Laboratories, CA, USA).
Background: A western blot detects proteins with antibodies after separation by electrophoresis.

The subject of experiment [4] is Mouse melanocytes (Melan-a). As to the kind of experiment: Melanin content with rapamycin (autophagy inducer) or bafilomycin (autophagy inhibitor). The following applies: bafilomycin (autophagy inhibitor) treatment, FIG. 8. The procedure: Mouse melanocytes (Melan-a) were inoculated into a 24-well plate at 1×10^5 cells/mL and cultured overnight. Thereafter, the medium was replaced with a new medium containing 100 μM IBMX (melanogenesis promoter) and 10 μg/mL and 100 μg/mL of the Nypa fruticans extract of the present disclosure, and reacted for 72 hours. Thereafter, the cells were treated with rapamycin (autophagy inducer) or bafilomycin (autophagy inhibitor), and the melanin content was evaluated.

With `CC(C)Cn1c(=O)n(C)c(=O)c2[nH]cnc21` [IBMX], in experiment [1] (100 μM IBMX, absorbance 405 nm), the “increase of melanin content compared to IBMX-untreated control group” value is recorded as “about 1.5 times”. For the same molecule, the “melanogenesis-related mRNA expression” value in experiment [2] is “increased”. For the same molecule, the melanogenesis-related protein levels entry in experiment [3] is “increased”.
`OC[C@H]1O[C@@H](Oc2ccc(O)cc2)[C@H](O)[C@@H](O)[C@@H]1O` [arbutin]: the “melanin content reduction effect” value in experiment [1] (IBMX-treated Melan-a, extract 100 μg/mL, arbutin positive control) is on record as “melanin content reduction effect”.
Turning to `CO/C1=C\C(C)=C\[C@@H](C)[C@@H](O)[C@@H](C)C/C(C)=C/C=C/[C@H](OC)[C@@H]([C@@H](C)[C@@H](O)[C@H](C)[C@@]2(O)C[C@@H](O)[C@H](C)[C@@H](C(C)C)O2)OC1=O` [bafilomycin], the “effect on melanin content” value in experiment [4] is on record as “did not affect”.

The values are drawn from US20240156717A1, “COMPOSITION FOR ENHANCING SKIN WHITENING EFFECT ACCORDING TO AUTOPHAGY ACTIVITY WITH NYPA FRUTICANS EXTRACT AS AN ACTIVE INGREDIENT” (KYUNGPOOK NATIONAL UNIVERSITY INDUSTRY - ACADEMIC …, priority 2022, published 2024).
